Where a name gives a salt, the structure may show the parent alone.
Test system: anesthetized dog
Assay: Effect on the increase in intravesical pressure induced by carbachol in anesthetized dog
Format: in vivo
Settings: for Increase in intravesical pressure: female Beagle dogs under halothane anesthesia, N = 3, P < 0.01 vs Control; for relaxation effect on the smooth muscle in the urinary bladder: conclusion in words from the test results of Test 1
Method: Effect on the increase in intravesical pressure induced by carbachol in anesthetized dog
Female Beagle dogs weighing 8.0-15.0 kg were fasted for 24 hours and maintained under halothane anesthesia. A 12F Foley catheter was lubricated with water soluble jelly, inserted into the urethral orifice and advanced approximately 10 cm until the balloon tip was placed well inside the bladder. The balloon was then inflated with 5 ml of room air and catheter slowly withdrawn just part the first resistance that is felt at the bladder neck. Urine was completely drained out through the catheter, and 30 ml of biological saline was infused. The catheter was connected to pressure transducer, and intravesical pressure was continuously recorded. The test compound was injected intravenously at five minutes before the administration of carbachol (1.8 μg/kg).

SMILES | Increase in intravesical pressure (0.100 mg/kg intravenously five minutes before carbachol (1.8 μg/kg), Control 6.9 ± 0.7) [mmHg] | relaxation effect on the smooth muscle in the urinary bladder | Increase in intravesical pressure (0.032 mg/kg intravenously five minutes before carbachol (1.8 μg/kg), Control 6.8 ± 1.1) [mmHg]
CC(C)(Cc1ccc(Oc2ccc(C(N)=O)cn2)cc1)NC[C@H](O)COc1cccc2[nH]c3ccccc3c12 [Test compound (2), (S)-4-[2-Hydroxy-3-[[2-[4-(5-carbamoyl-2-pyridyloxy)phenyl]-1,1-dimethylethyl]amino]propoxy]-carbazole hydrochloride] | 4.3 ± 0.3 | possess a relaxation effect on the smooth muscle in the urinary bladder | 
OC[C@H](Cc1ccc(O)cc1)NC[C@H](O)COc1ccccc1 [Test compound (1), (S)-1-Phenoxy-3-[[(S)-1-hydroxy-3-(4-hydroxyphenyl)-2-propyl]amino]-2-propanol] |  | possess a relaxation effect on the smooth muscle in the urinary bladder | 2.0 ± 0.3

From patent publication US20030073846A1, “Aminoalcohol derivatives” (priority 2000, published 2003)
